For orientation: IC50 means the concentration that gives 50% inhibition.

We go through 22 molecules from patent publication US20250091989A1, “SMALL MOLECULE PROTEIN SYNTHESIS MODULATORS” (Interdict Bio, Inc., priority 2023, published 2025).

What all share (type): biochemical
Holding throughout (details): HeLa S3 lysate, sfGFP/mCherry ratio, 2 hrs at 30° C.

One test deals with MYC. The experiment in a line: In vitro transcription-translation (IVTT) reporter assay, MYC test sequence. The procedure, abridged: (§1)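 Coupled transcription-translation in HeLa S3 lysate with reporter plasmids encoding mCherry-P2A-3×FLAG-TEST-sfGFP behind an EMCV IRES. Compounds were half-log titrated (30 μM-0.1 μM in DMSO dilution plate) into master mix, then DNA was added. Reactions ran 2 hrs at 30° C, were PBS-quenched and read for fluorescence.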
(In general: A reporter such as luciferase makes a cellular process visible.)

The next test deals with KRAS G12D. The experiment in a line: In vitro transcription-translation (IVTT) reporter assay, KRAS G12D test sequence. In outline: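 Compounds, half-log titrated 30 μM-0.1 μM in DMSO, were mixed with HeLa S3 lysate master mix and plasmid DNA, then incubated 2 h at 30 °C before PBS quench. Each construct fuses the CCND1, KRAS G12D, MCL-1 or BCL-2 sequence between 3×FLAG and sfGFP, downstream of mCherry-P2A.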

A further test concerns CCND1. The experiment in a line: In vitro transcription-translation (IVTT) reporter assay, CCND1 test sequence. From the text:
All reporter constructs have been cloned into the pT7CFE1-CHis plasmid (ThermoFisher #88860) using Gibson assembly procedures (NEB #E2611L). The parental pT7CFE1-CHis plasmid contains an EMCV IRES at the 5′UTR for translation initiation, a multiple-cloning site (MCS) for gene insertion, an optional C-terminal His-epitope tag, and polyA sequence in the 3′UTR to regulate mRNA stability. All reporters are designed to be inserted at the MCS to include a red fluorescent protein (mCherry), P2A self-cleaving peptide which releases the preceding mCherry protein product, and a fusion open reading frame containing a 3×FLAG epitope, a peptide sequence of interest (TEST), and green fluorescent protein (sfGFP).
Construct Plasmid Preparation: All plasmids are isolated from MACH1 cells (ThermoFisher) grown overnight in ampicillin-containing luria broth, and purified using ZymoPure Express Plasmid Midiprep Kit (Zymo Research). Constructs are sequenced verified and diluted to a working concentration of 110 ng/μL.
HeLa S3 Lysate Preparation: HeLa S3 cell pellets are acquired from Ipracell/Ipratech (Belgium) and shipped as 4 mL frozen cell pellets on dry ice for storage at −80° C. until use. The procedure for lysate preparation is as follows. Prepare 1× Lysis Buffer, cold and stored on ice:
Each preparation takes 8 cell pellets (4 ml packed volume each, approximately 1.0×10^9 cells per pellet). Thaw cell pellets from −80° C. on ice for 90 mins. Lay pellets horizontally on top of the ice and rotate every 30 mins to ensure even thawing. Once thawed, add 4 mL of cold lysis buffer to each pellet, and using a serological pipet, gently pipet up and down to break up clumps. Incubate resuspended cells in ice for an additional 30 mins (plunged into ice). During 30 min incubation, rinse and RNase-zap (Ambion) glass dounces (use loose pestle “A”), gently dry and place on ice until needed. Prepare RNase-free Eppendorf tubes for spinning and for batch storage. Add batch labels to 1.5-1.7 mL RNase-free microcentrifuge tubes (labeling scheme below). Each batch will have an extra 1.5-1.7 mL RNase-free microcentrifuge tube for 40 μL of lysate, label the top of this tube (labeling scheme below). After 30 min incubation, transfer all 8 mL of cell pellet to dounce. Cell lysis is complete after douncing 100 times. Aliquot cell lysis into 1.5-1.7 mL temporary-microcentrifuge tubes. Place tubes in centrifuge with “fins” out, and spin at 1,200 xg for 5 mins. After the first spin use a 1 mL pipet to resuspend each tube and repeat spin. This acts as an additional lysis step, is more vigorous and increases lysate yield. During second spin get liquid N2 and a fresh conical tube on ice.
After spin is complete, transfer supernatant (lysate) from microcentrifuge tubes into the 50 mL conical tube and keep on ice. Repeat steps 10-14 for all other cell pellets until completed. Once all cell lysate has been transferred to the 50 mL conical tube pipet to mix so the solution is homogenous. Transfer 1 mL of lysate into batch-labeled microcentrifuge tubes and flash freeze in liquid nitrogen. Be sure to pipet up and down to mix throughout transfer step. Place all tubes in the […] for long-term storage.
In vitro transcription-translation assay setup: Each assay includes a master mix containing lysate and shared components, a 96-well plate containing compound titrations for testing, a 96-well DNA plate with reporter constructs to be tested, 96-well skirted PCR plates, and 96-well flat-bottom, black, fluorescent assay plates. […]

Another test concerns ALK. The experiment in a line: In vitro transcription-translation (IVTT) reporter assay, ALK test sequence. The procedure, abridged:
as §1

`COc1ccc(C[C@H]2NC[C@H](O)[C@H]2OC(=O)C2CCC2)cc1` [V186921, (2R,3S,4S)-4-hydroxy-2-[(4-methoxyphenyl)methyl]pyrrolidin-3-ylcyclobutanecarboxylate; trifluoroacetic acid]: the IC50 in the test with MYC, with KRAS G12D and in the test on CCND1 was under 10 µM each time.
For `COc1ccc(C[C@H]2NC[C@H](O)[C@H]2OC(=O)CN2CC(F)(F)C2)cc1` [V187045, (2R,3S,4S)-4-hydroxy-2-[(4-methoxyphenyl)methyl]pyrrolidin-3-yl 2-(3,3-difluoroazetidin-1-yl)acetate; trifluoroacetic acid], the IC50 in the test on ALK and in the test with CCND1 was under 10 µM in each case.
For the molecule `COc1ccc(C[C@H]2NC[C@H](O)[C@H]2OC(=O)Cc2ccncc2)cc1` [V187056], the IC50 in the test with ALK, in the test with MYC and in the test with CCND1 was under 10 µM in each case.
With `COc1ccc(C[C@H]2NC[C@H](O)[C@H]2OC(=O)COCc2ccc3nsnc3c2)cc1` [V187072, (2R,3S,4S)-4-hydroxy-2-[(4-methoxyphenyl)methyl]pyrrolidin-3-yl 2-(2,1,3-benzothiadiazol-5-ylmethoxy)acetate; trifluoroacetic acid], the IC50 with ALK, with MYC and in the test with KRAS G12D was under 10 µM in each case.
Consider `COc1ccc(C[C@H]2NC[C@H](O)[C@H]2OC(=O)Cc2ccc3ccccc3c2)cc1` [V187123, (2R,3S,4S)-4-hydroxy-2-[(4-methoxyphenyl)methyl]pyrrolidin-3-yl 2-(naphthalen-2-yl)acetate; trifluoroacetic acid], for which the IC50 is under 10 µM in the test with ALK, 10 to 20 µM with MYC and over 30 µM with KRAS G12D.
On to `COc1ccc(C[C@H]2NC[C@H](O)[C@H]2OC(=O)Cc2ccc(OC(F)(F)F)cc2)cc1` [V187159, (2R,3S,4S)-4-hydroxy-2-[(4-methoxyphenyl)methyl]pyrrolidin-3-yl 2-[4-(trifluoromethoxy)phenyl]acetate], for which the IC50 with ALK was 10 to 20 µM; in the test on MYC it was 10 to 20 µM; in the test with KRAS G12D it was over 30 µM.
Regarding `COc1ccc(C[C@H]2NC[C@H](O)[C@H]2OC(=O)CCC(F)(F)F)cc1` [V187163, (2R,3S,4S)-4-hydroxy-2-[(4-methoxyphenyl)methyl]pyrrolidin-3-yl 4,4,4-trifluorobutanoate; trifluoroacetic acid], the IC50 in the test on ALK, in the test with MYC and with KRAS G12D was under 10 µM in each case.
Regarding `COc1ccc(C[C@H]2NC[C@H](O)[C@H]2OC(=O)C2CC(F)C2)cc1` (stereo partly drawn) [V187166, (2R,3S,4S)-4-hydroxy-2-[(4-methoxyphenyl)methyl]pyrrolidin-3-yl 3-fluorocyclobutane-1-carboxylate; trifluoroacetic acid], the IC50 in the test on ALK, with MYC and in the test with KRAS G12D was under 10 µM throughout.
With `COCCC(=O)OC1[C@@H](O)CN[C@@H]1Cc1ccc(OC)cc1` (stereo partly shown) [V187168], the half-inhibitory concentration (IC50) in the test with ALK, in the test with MYC and with CCND1 was under 10 µM each time.
As to `COc1ccc(C[C@H]2NC[C@H](O)[C@H]2OC(=O)CNC2CC2)cc1` [V187170, (2R,3S,4S)-4-hydroxy-2-[(4-methoxyphenyl)methyl]pyrrolidin-3-yl 2-(cyclopropylamino)acetate], the IC50 in the test with ALK, with MYC and in the test with CCND1 was under 10 µM throughout.
As for `COc1ccc(C[C@H]2NC[C@H](O)[C@H]2OC(=O)CCc2cscn2)cc1` [V187173, (2R,3S,4S)-4-hydroxy-2-[(4-methoxyphenyl)methyl]pyrrolidin-3-yl 3-(1,3-thiazol-4-yl)propanoate], the IC50 in the test on ALK, in the test with MYC and with KRAS G12D was under 10 µM in each case.
Consider `COc1ccc(C[C@H]2NC[C@H](O)[C@H]2OC(=O)Cc2noc(C)n2)cc1` [V187175, (2R,3S,4S)-4-hydroxy-2-[(4-methoxyphenyl)methyl]pyrrolidin-3-yl 2-(5-methyl-1,2,4-oxadiazol-3-yl)acetate; trifluoroacetic acid], for which the IC50 in the test on ALK, in the test on MYC and in the test with KRAS G12D was under 10 µM throughout.
On to `COc1ccc(C[C@H]2NC[C@H](O)C2OC(=O)COCc2ccc3nonc3c2)cc1` (stereo partly shown) [V187179], for which the IC50 in the test with ALK, in the test with MYC and with KRAS G12D was under 10 µM each time.
As to `COCCOCCOCC(=O)O[C@@H]1[C@@H](O)CN[C@@H]1Cc1ccc(OC)cc1` [V187184, (2R,3S,4S)-4-hydroxy-2-[(4-methoxyphenyl)methyl]pyrrolidin-3-yl 2-[2-(2-methoxyethoxy)ethoxy]acetate], the IC50 in the test on ALK, in the test on MYC and in the test with KRAS G12D was under 10 µM throughout.
In the case of `COc1ccc(C[C@H]2NC[C@H](O)[C@H]2OC(=O)CC[C@@H]2NC(=O)C3(CNC3)NC2=O)cc1` [V187324, (2R,3S,4S)-4-hydroxy-2-[(4-methoxyphenyl)methyl]pyrrolidin-3-yl 3-[(7S)-6,9-dioxo-2,5,8-triazaspiro[3.5]nonan-7-yl]propanoate], the IC50 with ALK was over 30 µM; in the test with MYC it was 20 to 30 µM; in the test on KRAS G12D, over 30 µM.
As to `COc1ccc(C[C@H]2NC[C@H](O)[C@H]2OC(=O)COCc2ccon2)cc1` [V187368, (2R,3S,4S)-4-hydroxy-2-[(4-methoxyphenyl)methyl]pyrrolidin-3-yl 2-(1,2-oxazol-3-ylmethoxy)acetate], the IC50 in the test with ALK, with MYC and in the test with KRAS G12D was under 10 µM in each case.
Consider `COc1ccc(C[C@H]2NC[C@H](O)[C@H]2OC(=O)Cc2nnn[nH]2)cc1` [V187533, (2R,3S,4S)-4-hydroxy-2-[(4-methoxyphenyl)methyl]pyrrolidin-3-yl 2-(1H−1,2,3,4-tetrazol-5-yl)acetate; trifluoroacetic acid], for which the results for the IC50 in the test on ALK, with MYC and with KRAS G12D were under 10 µM, 10 to 20 µM and over 30 µM, respectively.
Taken in the same sequence, the figures for `COc1ccc(C[C@H]2NC[C@H](O)[C@H]2OC(=O)C[C@H]2CCNC2)cc1` [V187689] were under 10 µM, under 10 µM and under 10 µM.
As for `COc1ccc(C[C@H]2NC[C@H](O)[C@H]2OC(=O)CCCN2CCNCC2)cc1` [V187694, (2R,3S,4S)-4-hydroxy-2-[(4-methoxyphenyl)methyl]pyrrolidin-3-yl 4-(piperazin-1-yl)butanoate], the IC50 in the test with ALK is under 10 µM; in the test with MYC it was under 10 µM; with KRAS G12D, 10 to 20 µM.
`COc1ccc(C[C@H]2NC[C@H](O)[C@H]2OC(=O)COCc2nnc(C)s2)cc1` [V187720]: the IC50 in the test on ALK, in the test on MYC and in the test with KRAS G12D was under 10 µM in each case.
For the molecule `CC(=O)O[C@@H]1[C@@H](O)CN[C@@H]1Cc1ccc(-c2cn(-c3ccccc3)nn2)cc1` [V187731], the IC50 with ALK, in the test on MYC and in the test on KRAS G12D was under 10 µM in each case.
For the molecule `CC(=O)O[C@@H]1[C@@H](O)CN[C@@H]1Cc1ccc(-c2cn(-c3ccnc(N)n3)nn2)cc1` [V188057, (2R,3S,4S)-2-({4-[1-(2-aminopyrimidin-4-yl)-1,2,3-triazol-4-yl]phenyl}methyl)-4-hydroxypyrrolidin-3-yl acetate], the IC50 with MYC and with CCND1 was under 10 µM throughout.
